Reference: PubChem BioAssay (NCI)
Values joined by “and” are separate entries in the source; they are usually repeats but may differ in a detail not shown here. Equal values may be shown once.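 Five compound concentrations were applied to cells in 96-well plates for 48 hours; endpoints were derived by simple linear interpolation of the resulting dose-response curve. GI50: concentration for 50% inhibition of growth. TGI is the concentration that stops growth completely.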

What was measured:
Assay in all cases: growth of human tumour cells (NCI), 48 h
CCRF-CEM leukemia = test system: CCRF-CEM leukemia
HOP-92 NSCLC = test system: HOP-92 NSCLC
HT29 colon = test system: HT29 colon
K-562 leukemia = test system: K-562 leukemia
M14 melanoma = test system: M14 melanoma
MALME-3M melanoma = test system: MALME-3M melanoma
SF-539 CNS = test system: SF-539 CNS
SNB-19 CNS = test system: SNB-19 CNS
BT-549 breast = test system: BT-549 breast
MDA-MB-435 = test system: MDA-MB-435

Row | Structure (SMILES) | TGI (CCRF-CEM leukemia) [µM] | TGI (HOP-92 NSCLC) [µM] | TGI (HT29 colon) [µM] | TGI (K-562 leukemia) [µM] | TGI (M14 melanoma) [µM] | TGI (MALME-3M melanoma) [µM] | TGI (SF-539 CNS) | TGI (SNB-19 CNS) [µM] | GI50 (BT-549 breast) | TGI (BT-549 breast) [µM] | GI50 (CCRF-CEM leukemia) | GI50 (HT29 colon) | GI50 (K-562 leukemia) | GI50 (M14 melanoma) | GI50 (SF-539 CNS) | GI50 (SNB-19 CNS) | GI50 (HOP-92 NSCLC) [µM] | GI50 (MDA-MB-435) [µM] | TGI (MDA-MB-435) [µM] | GI50 (MALME-3M melanoma) [µM]
1 | NCC(NC(=O)OCc1ccccc1)C(=O)O (stereo not drawn) | > 50 | > 50 | > 50 | > 50 | > 50 | > 50 | > 50 µM | > 50 | – | – | – | – | – | – | – | – | – | – | – | –
2 | CC1=C(c2cc(C(=O)Nc3ccc(Cl)c(Cl)c3)nc(N)n2)Sc2ccccc2N1 | > 100 | > 100 | > 100 | > 100 | > 100 | > 100 | > 100 µM | > 100 | – | – | – | – | – | – | – | – | – | – | – | –
3 | CC(=O)OC1C(CCl)OC(N=[N+]=[N-])C(OC(C)=O)C1OC(C)=O (stereo not drawn) | > 100 | – | > 100 | > 100 | > 100 | > 100 | > 100 µM | > 100 | – | – | – | – | – | – | – | – | – | – | – | –
4 | N#CCC(=O)N/N=C1\C(=O)N(c2ccc(Cl)cc2)C(=O)C(=O)C1c1nc2ccccc2o1 (stereo not drawn) | > 100 | > 100 | > 100 | – | > 100 | > 100 | > 100 µM | > 100 | – | – | – | – | – | – | – | – | – | – | – | –
5 | Clc1ccc(OC2CCO2)cc1Cl (stereo not drawn) | > 100 | > 100 | > 100 | > 100 | > 100 | > 100 | > 100 µM | > 100 | – | – | – | – | – | – | – | – | – | – | – | –
6 | O=C(O)C#CCO | > 100 | > 100 | > 100 | > 100 | > 100 | > 100 | > 100 µM | > 100 | – | – | – | – | – | – | – | – | – | – | – | –
7 | CNc1ccc(-c2cc(=O)oc3ccc(Cl)cc23)cc1 | > 100 | 7.96 | 0.496 | > 100 | > 100 | – | 0.481 µM and 0.109 µM | > 100 | 0.102 µM and 0.044 µM | 3.02 | 0.146 µM and 0.0494 µM | 0.297 µM and 0.139 µM | 0.0312 µM and 0.0363 µM | 0.0393 µM and 0.0313 µM | 0.0527 µM and 0.0255 µM | 0.23 µM and 0.0717 µM | – | – | – | –
8 | O=c1c2ccccc2c(=O)c2c1cc(Cl)c1[nH]c3c([nH]c12)c(Cl)cc1c(=O)c2ccccc2c(=O)c13 | > 100 | – | > 100 | > 100 | > 100 | > 100 | > 100 µM | > 100 | – | – | – | – | – | – | – | – | – | – | – | –
9 | COc1cccc(C2NC(=S)NC(C)=C2C(=O)Nc2ccc(F)c(Cl)c2)c1 (stereo not drawn) | – | > 50 | – | 49.2 | > 50 | – | > 50 µM | > 50 | 15.2 µM | 46.1 | – | – | 12.6 µM | 25.2 µM | > 50 µM | > 50 µM | > 50 | 27.3 | > 50 | –
10 | Cc1cc(C(=O)N2CCN(Cc3ccccc3)CC2)c(C)o1 | > 100 | > 100 | > 100 | > 100 | > 100 | – | > 100 µM | > 100 | – | – | – | – | – | – | – | – | – | – | – | –
11 | C[C@H]1CC(=O)C2=CCCC3(SCCCS3)[C@@H]2[C@H]1CO | > 100 | > 100 | > 100 | > 100 | > 100 | > 100 | > 100 µM | > 100 | – | – | – | – | – | – | – | – | – | – | – | –
12 | COC(=O)C1CCC(Nc2cccc(C(F)(F)F)c2)=N1 (stereo not drawn) | > 100 | > 100 | > 100 | > 100 | > 100 | > 100 | – | > 100 | – | – | – | – | – | – | – | – | – | – | – | –
13 | COc1ccc(/C=C/c2cc(N3CCOCC3)c3cc(F)c(F)cc3n2)cc1OC | 10.2 | 6.53 | – | – | 3.92 | – | 4.29 µM | 12.4 | 0.777 µM | 5.46 | 0.31 µM | – | – | 0.762 µM | 0.913 µM | 1.11 µM | 1.36 | 1.54 | 12.8 | –
14 | O=C(O)C1CCCCN1C(=O)c1ccccc1 (stereo not drawn) | > 100 | > 100 | > 100 | > 100 | > 100 | > 100 | > 100 µM | > 100 | – | – | – | – | – | – | – | – | – | – | – | –
15 | CCN(CC)CCNC(=O)c1cccc2cc3ccccc3nc12 | 41.3 | 27.8 | 35 | > 100 | 21.7 | – | 16.9 µM | 64.7 | – | – | – | – | – | – | – | – | – | – | – | –
16 | CC[O-].Cc1ccc2cccc([O-])c2n1.Cc1ccc2cccc([O-])c2n1.Cc1ccc2cccc([O-])c2n1.[Ti+4] | 38.8 | > 100 | > 88.9 | 52.2 | > 53.5 | > 66.3 | > 100 µM | > 100 | – | – | 6.97 µM | 30.6 µM | 11.7 µM | 22.2 µM | 40.4 µM | > 53.9 µM | > 100 | – | – | > 46
17 | COc1cc2cc[n+]3c4cc(OC)c(OC)cc4c(C)cc3c2cc1OC | > 100 | > 100 | > 100 | > 100 | > 100 | > 100 | > 100 µM | > 100 | – | – | – | – | – | – | – | – | – | – | – | –
18 | O=C(O)CCC1(Br)CCCCC(Br)C1=O (stereo not drawn) | > 100 | > 100 | > 100 | > 100 | > 100 | > 100 | > 100 µM | > 100 | – | – | – | – | – | – | – | – | – | – | – | –
19 | COc1ccc(Cc2cnc(NC(=O)c3sc4ccccc4c3Cl)s2)cc1 | > 100 | > 100 | > 100 | > 100 | – | > 100 | 0.674 µM | > 100 | 1.18 µM | > 100 | 0.402 µM | 0.37 µM | 0.289 µM | – | 0.236 µM | 0.461 µM | 5.26 | – | – | 0.81
20 | CN1c2ccccc2S(=O)(=O)n2c(COc3ccc(Cl)cc3)nnc21 | > 100 | 63.2 | > 100 | > 100 | > 100 | – | > 100 µM | > 100 | – | > 100 | – | – | – | – | – | – | – | – | > 100 | –
21 | CN(c1ccccc1)C1C(=O)N(c2ccccc2)C1/C=C/c1ccccc1 (stereo not drawn) | > 100 | > 100 | > 100 | – | – | > 100 | > 100 µM | > 100 | – | – | – | – | – | – | – | – | – | – | – | –
22 | CCC[CH2][Sn]([CH2]CCC)([O]C(=O)c1nccnc1N)[O]C(=O)c1nccnc1N | – | 2.43 | 3.05 | – | 2.49 | 2.04 | 2.3 µM | 2.69 | – | – | – | 1.59 µM | – | 1.23 µM | 1.09 µM | 1.4 µM | 1.16 | – | – | 0.57
